Data published in ChEMBL document CHEMBL1201862, “PubChem BioAssay data set” (2004).
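Exposure lasted 48 hours, with cells grown in 96-well plates and compounds tested at five concentrations. GI50 = concentration required for 50% inhibition of growth.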 Activity calls are given as the source filed them. No stated cut-off is given here; in the data, active = GI50 up to about 1.1 µM and inactive = higher.

Legend:
Assay in all cases: NCI-60 cell line screen, 48 h
A498 = test system: A498
CAKI-1 = test system: CAKI-1
COLO 205 = test system: COLO 205
EKVX = test system: EKVX
HCT-15 = test system: HCT-15
IGROV-1 = test system: IGROV-1
KM12 = test system: KM12
MCF7 = test system: MCF7
MOLT-4 = test system: MOLT-4
NCI-H460 = test system: NCI-H460
OVCAR-4 = test system: OVCAR-4
OVCAR-5 = test system: OVCAR-5
PC-3 = test system: PC-3
RPMI-8226 = test system: RPMI-8226
SF-295 = test system: SF-295
SF-539 = test system: SF-539
SR = test system: SR
UACC-257 = test system: UACC-257
UACC-62 = test system: UACC-62
UO-31 = test system: UO-31

CCOC(=O)/C=C(/C(=O)OCC)n1cc(C)c(=O)n(Cc2cnnn2COCCOC(C)=O)c1=O
GI50 (A498): 29.2 µM (inactive)
GI50 (CAKI-1): 5.26 µM (inactive)
GI50 (COLO 205): 3.79 µM (inactive)
GI50 (EKVX): 14.1 µM (inactive)
GI50 (HCT-15): 7.45 µM
GI50 (IGROV-1): 17 µM (inactive)
GI50 (KM12): 21.3 µM (inactive)
GI50 (MCF7): 10.5 µM (inactive)
GI50 (MOLT-4): 3.94 µM (inactive)
GI50 (NCI-H460): 24 µM (inactive)
GI50 (OVCAR-4): 24.7 µM (inactive)
GI50 (OVCAR-5): 16.4 µM (inactive)
GI50 (PC-3): 17.2 µM (inactive)
GI50 (RPMI-8226): 8.59 µM (inactive)
GI50 (SF-295): > 100 µM (inactive)
GI50 (SF-539): 5.22 µM (inactive)
GI50 (SR): 4.91 µM (inactive)
GI50 (UACC-257): 13.5 µM (inactive)
GI50 (UACC-62): 15.2 µM (inactive)
GI50 (UO-31): 16.7 µM (inactive)

C=C1C(OC2O[C@@H]3O[C@@]4(C)CC[C@H]5[C@H](C)CC[C@@H](C2=C)[C@@]35O4)O[C@@H]2O[C@@]3(C)CC[C@H]4[C@H](C)CC[C@@H]1[C@@]24O3 (stereo not given in full)
GI50 (A498): > 50 µM (inactive)
GI50 (CAKI-1): > 50 µM (inactive)
GI50 (COLO 205): > 50 µM (inactive)
GI50 (EKVX): > 50 µM (inactive)
GI50 (HCT-15): > 50 µM
GI50 (IGROV-1): > 50 µM (inactive)
GI50 (KM12): > 50 µM (inactive)
GI50 (MCF7): > 50 µM (inactive)
GI50 (MOLT-4): > 50 µM (inactive)
GI50 (NCI-H460): > 50 µM (inactive)
GI50 (OVCAR-4): > 50 µM (inactive)
GI50 (OVCAR-5): > 50 µM (inactive)
GI50 (PC-3): > 50 µM (inactive)
GI50 (RPMI-8226): > 50 µM (inactive)
GI50 (SF-295): > 50 µM (inactive)
GI50 (SF-539): > 50 µM (inactive)
GI50 (SR): > 50 µM (inactive)
GI50 (UACC-257): > 50 µM (inactive)
GI50 (UACC-62): > 50 µM (inactive)
GI50 (UO-31): > 50 µM (inactive)

CCNC(=O)c1cc(/C=C/c2ccc([N+](=O)[O-])o2)nc2ccccc12
GI50 (A498): 15.5 µM (inactive)
GI50 (CAKI-1): 7.96 µM (inactive)
GI50 (COLO 205): 3.8 µM (inactive)
GI50 (EKVX): > 58.2 µM (inactive)
GI50 (HCT-15): 3.88 µM
GI50 (IGROV-1): 5.69 µM (inactive)
GI50 (KM12): 98.6 µM (inactive)
GI50 (MCF7): 6.4 µM (inactive)
GI50 (MOLT-4): 0.276 µM (active)
GI50 (NCI-H460): 1.8 µM (inactive)
GI50 (OVCAR-4): > 100 µM (inactive)
GI50 (OVCAR-5): > 100 µM (inactive)
GI50 (PC-3): > 100 µM (inactive)
GI50 (RPMI-8226): 29.4 µM (inactive)
GI50 (SF-295): 41.7 µM (inactive)
GI50 (SF-539): 23.3 µM (inactive)
GI50 (SR): 1.38 µM (inactive)
GI50 (UACC-257): 3.67 µM (inactive)
GI50 (UACC-62): 32.1 µM (inactive)
GI50 (UO-31): 50.5 µM (inactive)

Cc1ccc2c(ccc(/C=C/c3ccc(O)c4ncccc34)[n+]2C)c1
GI50 (A498): 12.2 µM (inactive)
GI50 (CAKI-1): 5.55 µM (inactive)
GI50 (COLO 205): 5.38 µM (inactive)
GI50 (EKVX): 18.1 µM (inactive)
GI50 (HCT-15): 16.1 µM
GI50 (IGROV-1): 15.8 µM (inactive)
GI50 (KM12): 9.08 µM (inactive)
GI50 (MCF7): 7.36 µM (inactive)
GI50 (MOLT-4): 1.75 µM (inactive)
GI50 (NCI-H460): 2.87 µM (inactive)
GI50 (OVCAR-4): 5.09 µM (inactive)
GI50 (OVCAR-5): 25.2 µM (inactive)
GI50 (PC-3): > 25.3 µM (inactive)
GI50 (RPMI-8226): 13.9 µM (inactive)
GI50 (SF-295): 13.8 µM (inactive)
GI50 (SF-539): 7.18 µM (inactive)
GI50 (SR): 2.74 µM (inactive)
GI50 (UACC-257): 8.04 µM (inactive)
GI50 (UACC-62): 8.04 µM (inactive)
GI50 (UO-31): > 33.9 µM (inactive)

COc1ccc2oc(=O)c(-c3nc4ccccc4o3)cc2c1
GI50 (A498): 67.9 µM (inactive)
GI50 (CAKI-1): > 100 µM (inactive)
GI50 (COLO 205): 81.7 µM (inactive)
GI50 (EKVX): > 100 µM (inactive)
GI50 (HCT-15): 59 µM
GI50 (IGROV-1): > 100 µM (inactive)
GI50 (KM12): 27.4 µM (inactive)
GI50 (MCF7): 32.7 µM (inactive)
GI50 (MOLT-4): > 100 µM (inactive)
GI50 (NCI-H460): 74 µM (inactive)
GI50 (OVCAR-4): > 100 µM (inactive)
GI50 (OVCAR-5): > 100 µM (inactive)
GI50 (PC-3): > 100 µM (inactive)
GI50 (RPMI-8226): 98.2 µM (inactive)
GI50 (SF-295): 61.7 µM (inactive)
GI50 (SF-539): > 100 µM (inactive)
GI50 (SR): 5.25 µM (inactive)
GI50 (UACC-257): > 100 µM (inactive)
GI50 (UACC-62): 65 µM (inactive)
GI50 (UO-31): > 100 µM (inactive)

CC1(C)CCCCCCCCCC2CC2CCC(C)(C)C1=O (stereo not given)
GI50 (A498): 37.4 µM (inactive)
GI50 (CAKI-1): 33.5 µM (inactive)
GI50 (COLO 205): 18.5 µM (inactive)
GI50 (EKVX): 20.2 µM (inactive)
GI50 (HCT-15): 16.5 µM
GI50 (IGROV-1): 41.3 µM (inactive)
GI50 (KM12): 18.4 µM (inactive)
GI50 (MCF7): 16.4 µM (inactive)
GI50 (MOLT-4): 28.5 µM (inactive)
GI50 (NCI-H460): 21.1 µM (inactive)
GI50 (OVCAR-4): 32.9 µM (inactive)
GI50 (OVCAR-5): 21.2 µM (inactive)
GI50 (PC-3): 28.8 µM (inactive)
GI50 (RPMI-8226): 24 µM (inactive)
GI50 (SF-295): 18.3 µM (inactive)
GI50 (SF-539): 18.8 µM (inactive)
GI50 (SR): 6.59 µM (inactive)
GI50 (UACC-257): 23.6 µM (inactive)
GI50 (UACC-62): 36.1 µM (inactive)
GI50 (UO-31): 19.6 µM (inactive)

Cc1[nH]c(=O)nc(N/N=C/c2ccc(Cl)cc2)c1C(=O)Nc1ccc(Cl)cc1
GI50 (A498): 32.6 µM (inactive)
GI50 (CAKI-1): 53.5 µM (inactive)
GI50 (COLO 205): 25.6 µM (inactive)
GI50 (EKVX): > 86.5 µM (inactive)
GI50 (HCT-15): 38.5 µM
GI50 (IGROV-1): > 86.3 µM (inactive)
GI50 (KM12): 32.9 µM (inactive)
GI50 (MCF7): > 65.5 µM (inactive)
GI50 (MOLT-4): 45.5 µM (inactive)
GI50 (NCI-H460): 10.4 µM (inactive)
GI50 (OVCAR-4): 9.95 µM (inactive)
GI50 (OVCAR-5): 82.4 µM (inactive)
GI50 (PC-3): > 60.1 µM (inactive)
GI50 (RPMI-8226): 22.1 µM (inactive)
GI50 (SF-295): 20.6 µM (inactive)
GI50 (SF-539): 21.2 µM (inactive)
GI50 (SR): 44.3 µM (inactive)
GI50 (UACC-257): 31 µM (inactive)
GI50 (UACC-62): 47.3 µM (inactive)
GI50 (UO-31): > 100 µM (inactive)

CC(C)(C)OC(=O)N(CCCCNC(=O)OCc1ccccc1)CCCNC(=O)OCc1ccccc1
GI50 (A498): 21.8 µM (inactive)
GI50 (CAKI-1): 1.96 µM (inactive)
GI50 (COLO 205): 16.5 µM (inactive)
GI50 (EKVX): 50.4 µM (inactive)
GI50 (HCT-15): > 100 µM
GI50 (IGROV-1): > 100 µM (inactive)
GI50 (KM12): 35.5 µM (inactive)
GI50 (MCF7): 33.3 µM (inactive)
GI50 (MOLT-4): 3.27 µM (inactive)
GI50 (NCI-H460): 38.2 µM (inactive)
GI50 (OVCAR-4): 33 µM (inactive)
GI50 (OVCAR-5): > 100 µM (inactive)
GI50 (PC-3): 10.7 µM (inactive)
GI50 (RPMI-8226): 12.6 µM (inactive)
GI50 (SF-295): 25.9 µM (inactive)
GI50 (SF-539): > 100 µM (inactive)
GI50 (SR): 9.68 µM (inactive)
GI50 (UACC-257): 26.4 µM (inactive)
GI50 (UACC-62): 87.9 µM (inactive)
GI50 (UO-31): 5.7 µM (inactive)

O=[N+]([O-])c1cccc(/C=N/N=c2\ccc3ccccc3[nH]2)c1O
GI50 (A498): 5.68 µM (inactive)
GI50 (CAKI-1): 0.665 µM (active)
GI50 (COLO 205): 2.21 µM (inactive)
GI50 (EKVX): 1.48 µM (inactive)
GI50 (HCT-15): 0.146 µM
GI50 (IGROV-1): 2.02 µM (inactive)
GI50 (KM12): 1.87 µM (inactive)
GI50 (MCF7): 1.94 µM (inactive)
GI50 (MOLT-4): 0.83 µM (active)
GI50 (NCI-H460): 0.448 µM (active)
GI50 (OVCAR-4): 1.07 µM (active)
GI50 (OVCAR-5): 3.08 µM (inactive)
GI50 (PC-3): 2.7 µM (inactive)
GI50 (RPMI-8226): 1.37 µM (inactive)
GI50 (SF-295): 1.01 µM (active)
GI50 (SF-539): 1.84 µM (inactive)
GI50 (SR): 0.466 µM (active)
GI50 (UACC-257): 2.28 µM (inactive)
GI50 (UACC-62): 1.43 µM (inactive)
GI50 (UO-31): 0.335 µM (active)

OCC1OC(c2scc3c(=S)[nH]cnc23)C(O)C1O (stereo not given)
GI50 (A498): 6.84 µM (inactive)
GI50 (CAKI-1): 6.59 µM (inactive)
GI50 (COLO 205): 11.2 µM (inactive)
GI50 (EKVX): 76.2 µM (inactive)
GI50 (HCT-15): 4.1 µM
GI50 (IGROV-1): 9.62 µM (inactive)
GI50 (KM12): 24.5 µM (inactive)
GI50 (MCF7): 2.8 µM (inactive)
GI50 (MOLT-4): 4.25 µM (inactive)
GI50 (NCI-H460): 8.22 µM (inactive)
GI50 (OVCAR-4): 4.01 µM (inactive)
GI50 (OVCAR-5): 26.1 µM (inactive)
GI50 (PC-3): 2.53 µM (inactive)
GI50 (RPMI-8226): 9.31 µM (inactive)
GI50 (SF-295): 29 µM (inactive)
GI50 (SF-539): 8.81 µM (inactive)
GI50 (SR): 29.1 µM (inactive)
GI50 (UACC-257): 42.4 µM (inactive)
GI50 (UACC-62): 8.65 µM (inactive)
GI50 (UO-31): 6.08 µM (inactive)

N#Cc1c(O)cc(=O)n2c1[nH]c1ccccc12
GI50 (A498): > 100 µM (inactive)
GI50 (CAKI-1): > 100 µM (inactive)
GI50 (COLO 205): > 100 µM (inactive)
GI50 (EKVX): > 100 µM (inactive)
GI50 (HCT-15): > 100 µM
GI50 (IGROV-1): > 100 µM (inactive)
GI50 (KM12): > 100 µM (inactive)
GI50 (MCF7): > 100 µM (inactive)
GI50 (MOLT-4): > 100 µM (inactive)
GI50 (NCI-H460): > 100 µM (inactive)
GI50 (OVCAR-4): > 100 µM (inactive)
GI50 (OVCAR-5): > 100 µM (inactive)
GI50 (PC-3): > 100 µM (inactive)
GI50 (RPMI-8226): > 100 µM (inactive)
GI50 (SF-295): 64 µM (inactive)
GI50 (SF-539): > 100 µM (inactive)
GI50 (SR): > 100 µM (inactive)
GI50 (UACC-257): > 100 µM (inactive)
GI50 (UACC-62): > 100 µM (inactive)
GI50 (UO-31): > 100 µM (inactive)
